Results taken from patent publication EP0376166A1, “Condensed quinoline system compound and process of preparation thereof” (MECT CORPORATION, priority 1988, dated 1990).
In brackets after ≈: the same amount, converted by molar mass.

How the values were obtained:
KB Cell = test: Inhibition of multiplication (growth) of KB cells, in vitro; type: cell-based, human; settings: concentration for 50% growth inhibition vs control; for IC50: Homo sapiens, 72 h, compound added Day 1, cells counted Day 4, read-out: Conc.(ED50)
Description: KB cells, carcinomatous cell tumors, were transferred to in vitro floatation incubator systems, and added respectively with compounds of Examples 1 to 33. The results of cultivation added with these compounds were compared with the results of the control which was not added with any compound.
Cell used: KB Cell (Originating from human mouth epidermal cancer) Culture medium: Eagles minimal essential medium (MEM) supplemented with 10% calf serum Cultivation: 37°C carbon dioxide gas incubator (5% CO₂)
Day 0: KB cells were diluted in the culture medium to adjust the KB cell density to 2 x 10⁴/ml. Three ml of the cell suspension was inoculated in each of 60 mm plastic dishes. Two dishes per standard dosage were used. Day 1: Test compound was added to the medium so that the final concentrations were set to 100, 30, 10, 3 and 1 µg/ml. Day 4: Cells were scraped off from the dish using trypsin, and the cell number was countered using a Corter counter.
In generally accordance with the stipulations set forth by the National Cancer Institute (NCI), U.S.A., the concentration of compound necessary for exerting 50% growth inhibition (ED₅₀) compared to the control was determined. A compound was judged as effective when ED₅₀ was less than 4 µg/ml.

P-388 = test: Prolongation of life span in P-388 implanted mice; type: in vivo, CDF mouse; settings: for response vs control in vivo at 50 mg/kg / response vs control in vivo at 100 mg/kg / response vs control in vivo at 200 mg/kg / response vs control in vivo at 400 mg/kg / response vs control in vivo at 12.5 mg/kg / response vs control in vivo at 25 mg/kg: P388, ip, read-out: Ratio of Life Prolongation (%); for response vs control in vivo at 50 mg/kg / response vs control in vivo at 100 mg/kg / response vs control in vivo at 200 mg/kg / response vs control in vivo at 400 mg/kg / response vs control in vivo at 12.5 mg/kg / response vs control in vivo at 25 mg/kg / Ratio of Life Prolongation (%): T/C %, Day 1 and Day 5, P-388 10⁶ cells/mouse i.p.; for cure: cured mice per group of 6
Description: Animal used: CDF mouse (6 mice/group) Tumor: P-388 Number of implanted cells: 10⁶ cells/mouse Implanted site: i.p. Day of administration: Day 1 and Day 5 Dosage: LD₅₀ or 400 mg/kg/day at the maximum

| Compound | IC50 (KB Cell) | response vs control in vivo at 50 mg/kg (P-388; dosage 50 mg/kg) | response vs control in vivo at 100 mg/kg (P-388; dosage 100 mg/kg) | response vs control in vivo at 200 mg/kg (P-388; dosage 200 mg/kg) | response vs control in vivo at 12.5 mg/kg (P-388; dosage 12.5 mg/kg) | response vs control in vivo at 25 mg/kg (P-388; dosage 25 mg/kg) | further results |
| --- | --- | --- | --- | --- | --- | --- | --- |
| COc1cc(NC(C)=O)ccc1Nc1c2ccccc2nc2c1[nH]c1ccccc12 [Compound 15] | < 0.3 µg/mL | 263% | 240% | 76% |  |  | cure (P-388; dosage 100 mg/kg): 1/6 |
| COc1cc(NCS(=O)O)ccc1Nc1c2c(nc3ccccc13)-c1ccccc1C2 [Compound 7] | < 0.3 µg/mL | 111% | 108% | 111% |  |  |  |
| COc1cc(NS(C)(=O)=O)ccc1Nc1c2cccc(C)c2nc2c1oc1cc(C)ccc12 [Compound 29, 6-(4-methanesulfonamide-2-methoxyanilino)-3,10-dimethylbenzofurano[3,2-b]quinoline] | < 0.3 µg/mL |  | 204% | 269% |  |  | response vs control in vivo at 400 mg/kg (P-388; dosage 400 mg/kg): 76%; cure (P-388; dosage 100 mg/kg): 1/6; cure (P-388; dosage 200 mg/kg): 1/6 |
| COc1cc(NS(C)(=O)=O)ccc1Nc1c2ccccc2nc2c1[nH]c1ccc(C)cc12 [Compound 13, 6-(4-methanesulfonamide-2-methoxyanilino)-2-methylindolo[3,2-b]quinoline] | < 0.3 µg/mL | 115% |  |  | 189% | 192% |  |
| COc1cc(NS(C)(=O)=O)ccc1Nc1c2ccccc2nc2c1[nH]c1cc(C)ccc12 [Compound 17, 6-(4-methanesulfoneamide-2-methoxyanilino)-3-methylindolo[3,2-b]quinoline] | < 0.3 µg/mL | 75% |  |  | 153% | 77% |  |
| COc1cc(NS(C)(=O)=O)ccc1Nc1c2ccccc2nc2c1oc1cc(C)ccc12 [Compound 31, 6-(4-methanesulfonamide-2-methoxyanilino)-3-methylbenzofurano[3,2-b]quinoline] | < 0.3 µg/mL |  | 147% | 175% |  |  | response vs control in vivo at 400 mg/kg (P-388; dosage 400 mg/kg): 219%; cure (P-388; dosage 200 mg/kg): 1/6; cure (P-388; dosage 400 mg/kg): 1/6 |
| COc1cc(NS(C)(=O)=O)ccc1Nc1c2ccccc2nc2c1[nH]c1ccc([N+](=O)[O-])cc12 [Compound 18, 6-(4-methanesulfonamide-2-methoxyanilino)-2-nitroindolo[3,2-b]quinoline] | < 0.3 µg/mL |  |  |  |  |  | cure (P-388; dosage 12.5 mg/kg): 1/6 |
| COc1cc(N)ccc1Nc1c2c(nc3ccccc13)-c1ccccc1C2 [Compound 4] | < 0.3 µg/mL | 210% |  |  | 134% | 168% |  |
| COc1cc(NS(C)(=O)=O)ccc1Nc1c2c(nc3c(C)cccc13)-c1c(C)cccc1C2 [Compound 1, 6-4-(methanesulfonamide-2-methoxyanilino)-1,10-dimethylindeno[3,2-b]quinoline] | < 0.3 µg/mL | 210% | 290% | 240% |  |  | cure (P-388; dosage 100 mg/kg): 1/6; cure (P-388; dosage 200 mg/kg): 1/6 |
| 6-(4-methanesulfonamide-anilino)-indeno[3,2-b]quinoline [Compound 5] |  |  |  |  |  |  | Conc.(ED50) (KB Cell; compound added Day 1, cells counted Day 4, 4320 min): < 0.3 µg/mL; Ratio of Life Prolongation (%) (P-388; dosage 25 mg/kg): 140%; Ratio of Life Prolongation (%) (P-388; dosage 50 mg/kg): 135%; Ratio of Life Prolongation (%) (P-388; dosage 100 mg/kg): 163%; Ratio of Life Prolongation (%) (P-388; dosage 200 mg/kg): 172%; Ratio of Life Prolongation (%) (P-388; dosage 400 mg/kg): 165% |
| COc1cc(OC(C)=O)ccc1Nc1c2ccccc2nc2c1[nH]c1ccccc12 [Compound 21] | < 0.3 µg/mL | 185% |  |  |  | 179% | cure (P-388; dosage 50 mg/kg): 1/6 |
| COc1cc(NS(C)(=O)=O)ccc1Nc1c2ccccc2nc2c1[nH]c1ccc(Cl)cc12 [Compound 12] | < 0.3 µg/mL | 315% |  |  | 231% | 242% | cure (P-388; dosage 25 mg/kg): 1/6; cure (P-388; dosage 50 mg/kg): 1/6 |
| COc1cc(NS(C)(=O)=O)ccc1Nc1c2cccc(C)c2nc2c1oc1ccccc12 [Compound 27, 6-(4-methanesulfonamide-2-methoxyanilino)-10-methylbenzofurano[3,2-b]quinoline] | 0.38 µg/mL (≈ 0.849 µM) |  | 230% | 250% |  |  | cure (P-388; dosage 200 mg/kg): 1/6 |
| COc1cc(O)ccc1Nc1c2ccccc2nc2c1[nH]c1ccccc12 [Compound 20] | < 0.3 µg/mL |  |  |  | 179% | 131% | cure (P-388; dosage 25 mg/kg): 1/6 |
| COc1cc(NS(C)(=O)=O)ccc1Nc1c2ccccc2nc2c1[nH]c1ccc(F)cc12 [Compound 19, 2-fluoro-6-(4-methanesulfonamide-2-methoxyanilino)indolo[3,2-b]quinoline] | < 0.3 µg/mL |  |  |  | 313% | 252% | cure (P-388; dosage 12.5 mg/kg): 3/6; cure (P-388; dosage 25 mg/kg): 2/6 |
| COC(=O)Nc1ccc(Nc2c3ccccc3nc3c2[nH]c2ccccc23)c(OC)c1 [Compound 14] | < 0.3 µg/mL | 282% | 266% | 221% |  |  | cure (P-388; dosage 100 mg/kg): 1/6 |
| COc1cc(NCC(=O)O)ccc1Nc1c2c(nc3ccccc13)-c1ccccc1C2 [Compound 8] | < 0.3 µg/mL |  | 175% | 178% |  |  | response vs control in vivo at 400 mg/kg (P-388; dosage 400 mg/kg): 155% |
| COc1cc(NS(C)(=O)=O)ccc1Nc1c2ccccc2nc2c1[nH]c1ccc(NC3OC(COC(C)=O)C(OC(C)=O)C(OC(C)=O)C3OC(C)=O)cc12 (stereo not shown) [Compound 23, N-{4-[(7-(2,3,4,6-tetra-O-acetylglycosyl-1-amino)-10H-indolo[3,2-b]quinoline-11-yl)amino]-3-methoxyphenyl} methanesulfonamide] | < 0.3 µg/mL | 58% |  |  | 300% | 148% | cure (P-388; dosage 12.5 mg/kg): 2/6; cure (P-388; dosage 25 mg/kg): 1/6 |
| COC(=O)Nc1ccc(Nc2c3c(nc4ccccc24)-c2ccccc2C3)c(OC)c1 [Compound 3] | < 0.3 µg/mL |  | 151% | 97% |  |  | response vs control in vivo at 400 mg/kg (P-388; dosage 400 mg/kg): 0% |
| CN(C)c1cc(NS(C)(=O)=O)ccc1Nc1c2c(nc3ccccc13)-c1ccccc1C2 [Compound 6, 6-(4-methanesulfonamide-2-dimethylaminoanilino)-indeno[3,2-b]quinoline] | < 0.3 µg/mL |  | 169% | 247% |  |  | response vs control in vivo at 400 mg/kg (P-388; dosage 400 mg/kg): 148%; cure (P-388; dosage 200 mg/kg): 2/6 |
